What is called inhibition is the percentage by which the read-out fell short of the control.

This note sets out measurements from US12589082B2, “Compositions comprising thymoquinone and additional biologically active compounds” (N.S. OILS LTD., priority 2019, dated 2026).

This test has as its system NO production by LPS-stimulated cultured murine macrophages. Put plainly: Inhibition of NO production (Griess nitrite assay) in LPS-stimulated cultured murine macrophages. The following applies: for inhibition at 0.269 µg/mL: beta-carotene alone at 0.269 μg/ml. The format is cell-based, murine (ICR mice peritoneal macrophages; RAW264.7). The procedure:
The aim of this study was to investigate the effect of different combinations of NS oil and carotenoids on the in vitro production of the inflammatory mediator NO by LPS-stimulated cultured murine macrophages.
Macrophage isolation and cell culture—Peritoneal macrophages were collected from the peritoneal cavity of 6-8 week old male ICR mice (Harlan, Israel) that had been given an intraperitoneal injection of 1.5 ml of thioglycollate broth (4%) 4 days before harvest. […] Peritoneal macrophages and murine macrophage cell line RAW264.7 were cultured RPMI 1640 medium containing 10% FCS, 2 mM L-glutamine; 100 U/ml penicillin; 100 μg/ml streptomycin (Beit-Haemek, Israel) in 96-well plates (1×10^6 cells/well) at 37° C. in 5% CO2 atmosphere. Cells were stimulated with LPS (0.1-1 μg/ml) in the presence or absence of NS oil acid and/or one or more of the following carotenoids: astaxanthin, lutein and beta-Carotene. The following stock solutions of each active agent were used to prepare the various dilutions tested: • Cold-pressed NS oil containing 3% thymoquinone and 1.7% free fatty acids (N.S. Oils, Israel). • Lutein 20% (Lycored Ltd., Israel) • Beta-carotene 30% in vegetable oil (Lycored Ltd., Israel) • Astaxanthin oleoresin extracted from microalgae, containing 10% astaxanthin (Algatech, Israel). • Lycopene (present at a concentration of 6.35% in the commercially-available product known as Lyc-O-Mato, obtained from Lycored Ltd., Israel).
The carotenoids were dissolved in DMSO (to a final concentration of 5 mM). The mixture was vortexed and incubated in a water bath at 37° C. (with shaking) for 10 min and then sonicated in a sonicator bath three times for 15 seconds each time. Using this stock solution, the desired concentrations were prepared by the addition of appropriate volumes thereof to warm culture medium.
Appropriate volumes of DMSO (0.1-0.2%) were added to the control tubes and the percent inhibition of NO production in each test tube was calculated in relation to its control.
NO production assay—NO levels in supernatants of cell cultures were determined by assaying nitrite levels using Griess reagent and sodium nitrite as a standard as described in Green, L. C., Wagner, D. A., Glogowski, J., Skipper, P. L., Wishnok, J. S., and Tannenbaum, S. R. (1982) Anal Biochem. 126: 131-138. […]
For orientation: Griess reagent forms a coloured azo dye with nitrite.

Structures are written as SMILES.

Turning to `CC(C)=CCC/C(C)=C/C=C/C(C)=C/C=C/C(C)=C/C=C/C=C(C)/C=C/C=C(C)/C=C/C=C(\C)CCC=C(C)C` [lycopene], the inhibition at 0.35 µg/mL (Mus musculus, Macrophage, second study, FIG. 7, lycopene alone at 0.35 μg/ml) came to 13.5%.

As for `C=C(C)[C@@H]1CCC(C)=C[C@H]1c1c(O)cc(CCCCC)cc1O` [CBD, cannabidiol], the “inhibition of NO production” value (Example 2 first study, FIG. 8, CBD alone at 0.0075 μg/ml) is listed as “did not results in a detectable level of NO inhibition” and the “inhibition of NO production” value (Example 2 second study, FIG. 9 upper, CBD alone at 0.005 μg/ml) is recorded as “measurable inhibition of NO production”. The inhibition at 0.01 µg/mL (Mus musculus, Macrophage, read-out: inhibition of NO production) was < 10%.

For the compound `CC1=C(/C=C/C(C)=C/C=C/C(C)=C/C=C/C=C(C)/C=C/C=C(C)/C=C/C2=C(C)CCCC2(C)C)C(C)(C)CCC1` [beta-carotene], the inhibition at 0.269 µg/mL (Mus musculus, Macrophage, first study, FIG. 3) is < 10% and the inhibition at 0.269 µg/mL (Mus musculus, Macrophage, second study, FIG. 6) was 3.89%. The inhibition at 0.538 µg/mL (Mus musculus, Macrophage, first study, FIG. 3, beta-carotene alone at 0.538 μg/ml) is < 20%.

Turning to `CC1=C[C@H](O)CC(C)(C)[C@H]1/C=C/C(C)=C/C=C/C(C)=C/C=C/C=C(C)/C=C/C=C(C)/C=C/C1=C(C)C[C@@H](O)CC1(C)C` [lutein], for the setting “Mus musculus, Macrophage, second study, FIG. 5, lutein alone at 0.284 μg/ml”, the inhibition at 0.284 µg/mL turned out to be 6.96%. Moreover, under “first study, FIG. 2, lutein alone at 0.284 μg/ml”, the “inhibition of NO production” value was “did not cause any measurable degree of NO inhibition”.

Take `CC1=C(/C=C/C(C)=C/C=C/C(C)=C/C=C/C=C(C)/C=C/C=C(C)/C=C/C2=C(C)C(=O)[C@@H](O)CC2(C)C)C(C)(C)C[C@H](O)C1=O` [astaxanthin]: under “Example 1 first study, FIG. 1, astaxanthin alone at 0.298 and 0.596 μg/ml, % of maximal inhibition”, the “inhibition of NO production” value is 20-25%. Moreover, the inhibition at 0.298 µg/mL reads like this: (Mus musculus, Macrophage, Example 4, text summary, astaxanthin only, 0.298 μg/ml) ~20%; (Mus musculus, Macrophage, Example 4 comparative, column 0.0015 μg/ml TQ of high-FFA NS oil dilution, astaxanthin 0.298 μg/ml, agent alone or combined as labelled) 19.1%; (Mus musculus, Macrophage, Example 4 comparative, column 0.0030 μg/ml TQ of high-FFA NS oil dilution, astaxanthin 0.298 μg/ml, agent alone or combined as labelled) 21.3%; (Mus musculus, Macrophage, second study, FIG. 4, astaxanthin alone at 0.298 μg/ml) 19.1%.
